Series [1] concerns the target VEGFR2 (KDR) (Homo sapiens (Human), UniProt P35968). Put plainly: kinase inhibition, Mobility-Shift Assay. The series is classed as biochemical. The conditions noted are these: VEGFR2, 92 μM ATP.
For series [2], the system named is cervical cancer cell lines (Hela). Put plainly: tumor cell proliferation inhibition (CTG), cervical cancer cell line. Particulars: Homo sapiens, 72 hours. It is filed as cell-based.
Series [3] concerns gastric cancer cell line (SNU16). The experiment in a line: tumor cell proliferation inhibition (CTG), gastric cancer cell line. The conditions noted are these: Homo sapiens, SNU-16, 72 hours, read-out: SUN16 IC50. The series is classed as cell-based.
Series [4] deals with FGFR2 (Homo sapiens (Human), UniProt P21802). The experiment in a line: kinase inhibition, Mobility-Shift Assay. It is filed as biochemical. Particulars: 1.9 μM ATP.
A short description of series [5]: MTD toxicity test in rats. The series is classed as in vivo. The conditions noted are these: 150 mg/kg; for MTD toxicity test, clinical outcome: rat, in vivo; for autopsy results of organs: rats, QD, 14 days, heart, liver, lungs, kidneys, stomach, intestines and other organs.
Series [6] concerns pancreatic cancer cell line (BXPC3). Put plainly: tumor cell proliferation inhibition (CTG), pancreatic cancer cell line. It is filed as cell-based. The conditions noted are these: Homo sapiens, BXPC-3, 72 hours.
The subject of series [7] is BXPC3, SNU16, Hep3B 2.1-7 subcutaneous tumors. The experiment in a line: tumor suppression in nude mice with subcutaneously transplanted tumors. The series is classed as in vivo. The conditions noted are these: BXPC3, SNU16, Hep3B 2.1-7 transplants, within 3-4 weeks. From the text: These preferred compounds (e.g., IIIb-08, IIIb-09, IIIb-45, IIIb-50, IIIb-55, IIIb-56, IIIb-57, IIIb-58, IIIb-60, IIIb-61, IIIb-65) are currently being used to […] in nude mice subcutaneously transplanted with pancreatic cancer cell line (BXPC3), gastric cancer cell line (SNU16), liver cancer cell line (Hep3B 2.1-7) and other tumor suppressive effects have been observed in vivo, the tumor suppression rate of subcutaneous tumors in nude mice could reach 80-110% within 3-4 weeks. […] Therefore, the preferred compounds “IIIb-08, IIIb-09, IIIb-45, IIIb-50, IIIb-55, IIIb-56, IIIb-57, IIIb-58, IIIb-60, IIIb-61, IIIb-65” designed and synthesized by the present invention not only have better inhibitory activity, but also have better safety and drug-forming properties, which are valuable for further preclinical studies such as pharmacotoxicology and clinical trials.

The target in series [8] is VEGFR1 (FLT1) (Homo sapiens (Human), UniProt P17948). The experiment in a line: kinase inhibition, Mobility-Shift Assay. The conditions noted are these: 278 μM ATP. The series is classed as biochemical.
Series [9] concerns prostatic cancer (PC-3). The experiment in a line: tumor cell proliferation inhibition (CTG), PC-3. The series is classed as cell-based. Particulars: 72 hours.
The target of series [10] is hERG potassium channels (Homo sapiens (Human), UniProt Q12809). The experiment in a line: in vitro inhibitory effect of hERG, whole-cell patch clamp. The series is classed as cell-based. The conditions noted are these: whole-cell recording, room temperature. A general note: Block of hERG is tested as a sign of cardiac risk.
In series [11] the target is VEGFR3 (FLT4) (Homo sapiens (Human), UniProt P35916). Put plainly: kinase inhibition, Mobility-Shift Assay. It is filed as biochemical. The conditions noted are these: 84 μM ATP.
For series [12], the system named is kidney cancer cell line (Caki-1). The experiment in a line: tumor cell proliferation inhibition (CTG), kidney cancer cell line. The series is classed as cell-based. The conditions noted are these: Homo sapiens, 72 hours, read-out: Caki-1 (renal cancer) IC50.
Series [13] deals with lung cancer cell line (A549). The experiment in a line: tumor cell proliferation inhibition (CTG), lung cancer cell line. It is filed as cell-based. The conditions noted are these: Homo sapiens, 72 hours.
Series [14] has as its system leukemia cell line (K562). The experiment in a line: tumor cell proliferation inhibition (CTG), leukemia cell line. Particulars: Homo sapiens, 72 hours. It is filed as cell-based.
For series [15], the system named is hepatocellular carcinoma cell line (Hep3B 2.1-7). Put plainly: tumor cell proliferation inhibition (CTG), hepatocellular carcinoma cell line. It is filed as cell-based. Particulars: Homo sapiens, 72 hours.
Series [16] deals with RET (Homo sapiens (Human), UniProt P07949). Put plainly: kinase inhibition, Mobility-Shift Assay. It is filed as biochemical. The conditions noted are these: 23 μM ATP.

A word on the IC50: it is the concentration needed to halve the response being measured.

A value given as a limit tells only on which side of the number the result lay.

Chain of VEGFR2 (KDR) (P35968 20-1356): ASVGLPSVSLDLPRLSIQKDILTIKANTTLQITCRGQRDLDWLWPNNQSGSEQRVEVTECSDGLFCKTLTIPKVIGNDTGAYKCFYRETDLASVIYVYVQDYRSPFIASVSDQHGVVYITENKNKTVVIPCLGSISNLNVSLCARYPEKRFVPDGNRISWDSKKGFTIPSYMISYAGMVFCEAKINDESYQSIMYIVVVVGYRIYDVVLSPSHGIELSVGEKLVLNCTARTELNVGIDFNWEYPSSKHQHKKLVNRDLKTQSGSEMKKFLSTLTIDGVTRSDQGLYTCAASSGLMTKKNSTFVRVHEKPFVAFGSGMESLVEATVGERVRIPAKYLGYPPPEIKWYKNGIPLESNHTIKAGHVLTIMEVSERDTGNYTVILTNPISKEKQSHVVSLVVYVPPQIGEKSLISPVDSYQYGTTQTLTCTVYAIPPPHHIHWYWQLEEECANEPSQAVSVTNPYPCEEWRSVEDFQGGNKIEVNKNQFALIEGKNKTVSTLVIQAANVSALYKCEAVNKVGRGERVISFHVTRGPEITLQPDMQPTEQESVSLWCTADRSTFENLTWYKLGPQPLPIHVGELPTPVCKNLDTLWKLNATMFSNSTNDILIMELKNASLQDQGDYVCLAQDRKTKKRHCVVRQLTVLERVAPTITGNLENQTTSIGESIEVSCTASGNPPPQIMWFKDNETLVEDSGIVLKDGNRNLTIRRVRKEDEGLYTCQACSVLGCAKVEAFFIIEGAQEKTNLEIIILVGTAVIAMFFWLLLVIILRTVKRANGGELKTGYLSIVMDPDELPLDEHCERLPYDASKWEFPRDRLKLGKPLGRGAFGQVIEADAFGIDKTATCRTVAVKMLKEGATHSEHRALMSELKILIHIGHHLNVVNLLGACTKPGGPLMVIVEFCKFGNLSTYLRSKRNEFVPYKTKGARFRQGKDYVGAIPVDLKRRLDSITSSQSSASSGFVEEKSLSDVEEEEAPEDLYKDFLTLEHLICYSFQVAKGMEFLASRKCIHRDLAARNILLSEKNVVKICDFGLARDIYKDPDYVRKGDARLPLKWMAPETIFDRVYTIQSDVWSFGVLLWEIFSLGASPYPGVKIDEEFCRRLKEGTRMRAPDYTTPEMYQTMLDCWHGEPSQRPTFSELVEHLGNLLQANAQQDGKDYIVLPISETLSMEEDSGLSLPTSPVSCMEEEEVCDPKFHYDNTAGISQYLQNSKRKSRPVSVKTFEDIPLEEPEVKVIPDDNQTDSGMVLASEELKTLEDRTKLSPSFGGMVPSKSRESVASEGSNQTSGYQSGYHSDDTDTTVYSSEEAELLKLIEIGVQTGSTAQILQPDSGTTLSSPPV
Chain of FGFR2 (P21802 22-821): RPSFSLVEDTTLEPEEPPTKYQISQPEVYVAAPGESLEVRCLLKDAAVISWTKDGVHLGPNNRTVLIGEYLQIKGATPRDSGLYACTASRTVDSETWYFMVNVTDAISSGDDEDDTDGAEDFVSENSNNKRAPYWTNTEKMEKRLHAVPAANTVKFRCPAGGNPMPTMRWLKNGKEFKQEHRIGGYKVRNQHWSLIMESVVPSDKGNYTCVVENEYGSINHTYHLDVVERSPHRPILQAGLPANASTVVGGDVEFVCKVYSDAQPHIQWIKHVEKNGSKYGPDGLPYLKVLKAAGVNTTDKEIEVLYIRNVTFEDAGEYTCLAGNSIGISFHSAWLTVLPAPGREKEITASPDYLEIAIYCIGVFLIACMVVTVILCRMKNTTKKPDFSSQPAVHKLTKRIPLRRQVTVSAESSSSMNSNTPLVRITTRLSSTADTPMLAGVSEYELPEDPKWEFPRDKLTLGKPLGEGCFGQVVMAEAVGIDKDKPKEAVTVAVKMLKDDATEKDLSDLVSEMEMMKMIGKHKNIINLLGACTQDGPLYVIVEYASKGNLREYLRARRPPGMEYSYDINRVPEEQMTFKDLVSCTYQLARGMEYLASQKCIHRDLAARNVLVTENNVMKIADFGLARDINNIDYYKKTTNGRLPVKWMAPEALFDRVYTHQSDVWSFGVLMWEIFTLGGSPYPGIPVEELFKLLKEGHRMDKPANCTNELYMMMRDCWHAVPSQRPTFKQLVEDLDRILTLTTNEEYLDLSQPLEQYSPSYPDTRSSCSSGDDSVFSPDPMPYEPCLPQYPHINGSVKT
Chain of RET (P07949 29-1114): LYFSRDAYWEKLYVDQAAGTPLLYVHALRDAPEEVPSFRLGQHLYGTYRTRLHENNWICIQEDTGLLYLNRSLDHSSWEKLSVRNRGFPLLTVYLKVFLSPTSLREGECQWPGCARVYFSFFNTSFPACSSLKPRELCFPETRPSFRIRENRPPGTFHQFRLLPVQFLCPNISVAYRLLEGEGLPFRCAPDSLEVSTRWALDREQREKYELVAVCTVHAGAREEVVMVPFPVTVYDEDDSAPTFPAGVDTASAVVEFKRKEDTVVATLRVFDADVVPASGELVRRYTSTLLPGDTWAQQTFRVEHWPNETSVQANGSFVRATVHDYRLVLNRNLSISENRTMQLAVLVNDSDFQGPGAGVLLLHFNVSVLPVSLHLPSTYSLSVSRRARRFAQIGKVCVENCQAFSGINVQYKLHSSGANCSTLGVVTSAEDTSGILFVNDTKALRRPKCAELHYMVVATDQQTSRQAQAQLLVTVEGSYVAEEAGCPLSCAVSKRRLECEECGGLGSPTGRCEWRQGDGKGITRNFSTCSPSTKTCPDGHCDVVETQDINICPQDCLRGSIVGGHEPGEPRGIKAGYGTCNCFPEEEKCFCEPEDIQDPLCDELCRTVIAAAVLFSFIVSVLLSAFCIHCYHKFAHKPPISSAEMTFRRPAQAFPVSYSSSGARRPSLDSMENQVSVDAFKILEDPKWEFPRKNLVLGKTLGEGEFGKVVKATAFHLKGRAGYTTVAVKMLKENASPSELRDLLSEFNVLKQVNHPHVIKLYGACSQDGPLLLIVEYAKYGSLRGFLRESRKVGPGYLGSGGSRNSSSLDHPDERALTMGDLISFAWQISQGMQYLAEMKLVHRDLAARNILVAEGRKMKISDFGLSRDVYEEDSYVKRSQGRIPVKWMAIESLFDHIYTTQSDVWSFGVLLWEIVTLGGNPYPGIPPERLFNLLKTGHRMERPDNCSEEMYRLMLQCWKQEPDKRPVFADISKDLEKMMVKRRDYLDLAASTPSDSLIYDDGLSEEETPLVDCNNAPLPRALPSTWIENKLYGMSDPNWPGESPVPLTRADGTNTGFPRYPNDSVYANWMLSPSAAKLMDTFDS
Chain of hERG potassium channels (Q12809 whole entry): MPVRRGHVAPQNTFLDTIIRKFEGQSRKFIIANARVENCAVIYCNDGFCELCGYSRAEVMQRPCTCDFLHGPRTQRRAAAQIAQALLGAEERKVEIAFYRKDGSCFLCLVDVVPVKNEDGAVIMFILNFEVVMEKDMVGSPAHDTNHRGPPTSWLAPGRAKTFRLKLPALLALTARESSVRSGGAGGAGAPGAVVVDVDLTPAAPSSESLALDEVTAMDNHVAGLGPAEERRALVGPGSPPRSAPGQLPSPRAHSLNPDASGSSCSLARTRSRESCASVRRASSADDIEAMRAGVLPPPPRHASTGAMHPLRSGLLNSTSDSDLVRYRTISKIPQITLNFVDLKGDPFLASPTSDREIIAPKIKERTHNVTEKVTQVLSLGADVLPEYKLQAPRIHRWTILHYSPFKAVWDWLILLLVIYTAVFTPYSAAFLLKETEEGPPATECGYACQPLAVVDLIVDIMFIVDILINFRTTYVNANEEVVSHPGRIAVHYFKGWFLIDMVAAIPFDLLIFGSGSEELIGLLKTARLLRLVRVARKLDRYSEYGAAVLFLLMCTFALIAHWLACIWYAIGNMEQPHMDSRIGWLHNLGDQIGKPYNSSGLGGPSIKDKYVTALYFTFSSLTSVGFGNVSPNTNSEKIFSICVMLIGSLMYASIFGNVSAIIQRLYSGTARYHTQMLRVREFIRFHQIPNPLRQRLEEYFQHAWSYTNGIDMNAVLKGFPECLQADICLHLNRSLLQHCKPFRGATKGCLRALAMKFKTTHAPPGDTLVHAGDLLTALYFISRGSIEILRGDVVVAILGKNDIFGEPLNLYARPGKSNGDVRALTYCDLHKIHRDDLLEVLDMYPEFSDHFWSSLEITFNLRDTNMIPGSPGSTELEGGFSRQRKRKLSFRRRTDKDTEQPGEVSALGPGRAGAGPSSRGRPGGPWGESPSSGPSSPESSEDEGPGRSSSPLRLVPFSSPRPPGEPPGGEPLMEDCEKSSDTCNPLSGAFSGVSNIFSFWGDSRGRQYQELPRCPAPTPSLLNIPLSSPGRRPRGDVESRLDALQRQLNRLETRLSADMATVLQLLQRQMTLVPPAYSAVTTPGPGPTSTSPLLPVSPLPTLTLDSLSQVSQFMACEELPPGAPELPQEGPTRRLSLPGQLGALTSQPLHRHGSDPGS

For the compound `NC(=O)c1cc2c(Oc3c(F)cc(NC(=O)NC4CC4)c(Cl)c3F)ccnc2cc1OCC1(N)CC1` [IIIb-61], the IC50 in series [1] is under 0.005 µM; in series [2], under 5 µM; in [3], under 5 µM; in [4], under 0.05 µM; in series [6], under 5 µM; in series [8] it was under 0.005 µM. Moreover, the IC50 is 5 to 10 µM in series [9]; over 30 µM in [10]; under 0.005 µM in series [11]; under 2.5 µM in [12]; under 2.5 µM in series [13]; under 5 µM in [14]. Moreover, the values for the IC50 in series [15] and in series [16] were under 2.5 µM and under 0.005 µM, respectively. The “MTD toxicity test, clinical outcome” value in series [5] is recorded as “no abnormalities such as death”. For the same compound, the “autopsy results of organs” value in series [5] is listed as “did not reveal any abnormal changes”. In addition, the “tumor suppression rate of subcutaneous tumors” value (from here on “tumor suppression rate”) in series [7] is reported as 80-110%.
On to `COc1cc2nccc(Oc3c(F)cc(NC(=O)NC4CC4)c(Cl)c3F)c2cc1C(=O)NCCC#N` [IIIb-50], for which the IC50 was under 0.005 µM in [1]; under 5 µM in [2]; under 5 µM in series [3]; under 0.05 µM in [4]; under 5 µM in series [6]; under 0.005 µM in [8]. In addition, the IC50 in series [9] is 5 to 10 µM; in [10], over 30 µM; in series [11], under 0.005 µM; in [12], under 2.5 µM; in [13], under 2.5 µM; in [14] it was under 5 µM. Also, the results for the IC50 in series [15] and in series [16] were under 2.5 µM and under 0.005 µM, respectively. For the same compound, in [5], the “MTD toxicity test, clinical outcome” value is “no abnormalities such as death”. The “autopsy results of organs” value in series [5] was “did not reveal any abnormal changes”. Also, the “tumor suppression rate” value in series [7] is 80-110%.
As to `COc1cc2nccc(Oc3c(F)cc(NC(=O)NC4CC4)c(Cl)c3F)c2cc1C(=O)NCC#N` [IIIb-45], the IC50 in series [1] is under 0.005 µM; in [2], under 5 µM; in series [3] it was under 5 µM; in [4], under 0.05 µM; in series [6] it was under 5 µM; in series [8], under 0.005 µM. Also, the IC50 in series [9] is 5 to 10 µM; in series [10] it was over 30 µM; in series [11] it was under 0.005 µM; in [12], under 2.5 µM; in [13] it was under 2.5 µM; in series [14], under 5 µM. Moreover, the IC50 was under 2.5 µM in series [15] and under 0.005 µM in series [16]. The “MTD toxicity test, clinical outcome” value in series [5] is given as “no abnormalities such as death”. For the same compound, the “autopsy results of organs” value in series [5] is “did not reveal any abnormal changes”. In addition, the “tumor suppression rate” value in series [7] is 80-110%.
As to `N#CCOc1cc2nccc(Oc3c(F)cc(NC(=O)NC4CC4)c(Cl)c3F)c2cc1C(N)=O` [IIIb-58], the IC50 in [1] was under 0.005 µM; in series [2] it was under 5 µM; in series [3], under 5 µM; in [4], under 0.05 µM; in series [6], under 5 µM; in series [8] it was under 0.005 µM. In addition, the IC50 in [9] was 5 to 10 µM; in series [10], over 30 µM; in [11], under 0.005 µM; in series [12], under 2.5 µM; in [13] it was under 2.5 µM; in series [14] it was under 5 µM. Besides, the figures for the IC50 in series [15] and in series [16] were under 2.5 µM and under 0.005 µM, respectively. For the same compound, in series [5], the “MTD toxicity test, clinical outcome” value is listed as “no abnormalities such as death”. In series [5], the “autopsy results of organs” value is recorded as “did not reveal any abnormal changes”. Moreover, the “tumor suppression rate” value in series [7] is recorded as 80-110%.
With `COc1cc2nccc(Oc3c(F)cc(NC(=O)NC4CC4)c(Cl)c3F)c2cc1C(=O)NC[C@@H](O)CO` [IIIb-21], the IC50 in [1] is under 0.005 µM; in series [2], over 10 µM; in series [3], over 10 µM; in series [4], 0.05 to 0.1 µM; in [6], 5 to 10 µM; in [8], under 0.005 µM. Also, the IC50 in series [9] was over 10 µM; in [11], under 0.005 µM; in series [12], under 2.5 µM; in [13], under 2.5 µM; in series [14], 5 to 10 µM; in [15], 2.5 to 5 µM. Also, the IC50 in series [16] fell in the range of 0.005 to 0.01 µM.
On to `COc1cc2nccc(Oc3c(F)cc(NC(=O)NC4CC4)c(Cl)c3F)c2cc1C(=O)NCC(F)F` [IIIb-08], for which the concentration for half-maximal inhibition (IC50) in series [1] is under 0.005 µM; in [2] it was under 5 µM; in [3] it was under 5 µM; in [4], under 0.05 µM; in series [6] it was under 5 µM; in series [8], under 0.005 µM. For the same compound, the IC50 was 5 to 10 µM in series [9]; over 30 µM in [10]; under 0.005 µM in series [11]; under 2.5 µM in series [12]; under 2.5 µM in series [13]; under 5 µM in series [14]. Further, the IC50 was under 2.5 µM in series [15] and under 0.005 µM in series [16]. The “MTD toxicity test, clinical outcome” value in series [5] is recorded as “no abnormalities such as death”. Besides, the “autopsy results of organs” value in series [5] was “did not reveal any abnormal changes”. Further, in series [7], the “tumor suppression rate” value is given as 80-110%.
For the compound `NC(=O)c1cc2c(Oc3c(F)cc(NC(=O)NC4CC4)c(Cl)c3F)ccnc2cc1OCCF` [IIIb-55], the IC50 in series [1] was under 0.005 µM; in [2], under 5 µM; in series [3], under 5 µM; in [4], under 0.05 µM; in series [6], under 5 µM; in series [8], under 0.005 µM. The IC50 in series [9] was 5 to 10 µM; in series [10], over 30 µM; in series [11] it was under 0.005 µM; in [12] it was under 2.5 µM; in series [13], under 2.5 µM; in [14], under 5 µM. In addition, the IC50 in series [15] is under 2.5 µM; in series [16], 0.005 to 0.01 µM. Further, the “MTD toxicity test, clinical outcome” value in [5] is on record as “no abnormalities such as death”. The “autopsy results of organs” value in series [5] is recorded as “did not reveal any abnormal changes”. For the same compound, in [7], the “tumor suppression rate” value is given as 80-110%.
Consider `NC(=O)c1cc2c(Oc3c(F)cc(NC(=O)NC4CC4)c(Cl)c3F)ccnc2cc1OCC(F)F` [IIIb-56], for which the IC50 was under 0.005 µM in series [1]; under 5 µM in series [2]; under 5 µM in [3]; under 0.05 µM in [4]; under 5 µM in [6]; under 0.005 µM in series [8]. Also, the IC50 in series [9] was 5 to 10 µM; in [10], over 30 µM; in [11] it was under 0.005 µM; in series [12] it was under 2.5 µM; in series [13], under 2.5 µM; in series [14], under 5 µM. For the same compound, the results for the IC50 in series [15] and in series [16] were under 2.5 µM and under 0.005 µM, respectively. The “MTD toxicity test, clinical outcome” value in [5] is reported as “no abnormalities such as death”. In series [5], the “autopsy results of organs” value was “did not reveal any abnormal changes”. For the same compound, the “tumor suppression rate” value in series [7] is reported as 80-110%.
Regarding `COc1cc2nccc(Oc3ccc(NC(=O)NC4CC4)c(Cl)c3)c2cc1C(N)=O` [Lenvatinib, lenvatinib, reference compound], the IC50 in series [2] was over 10 µM; in series [3], 5 to 10 µM; in series [4], 0.05 to 0.1 µM; in series [6], over 10 µM; in series [8], 0.005 to 0.01 µM; in [9], over 10 µM. For the same compound, the IC50 in series [11] was under 0.005 µM; in series [12], over 5 µM; in [13] it was over 5 µM; in series [14] it was 5 to 10 µM; in series [15], over 5 µM.

These data come from US11912663B2, “Multi-targeted tyrosine kinase inhibitors and their pharmaceutical uses” (Shanghai AB PharmaTech Ltd., priority 2021, dated 2024).
